Experimental findings from patent US9267949B2, “Alkylamino BODIPY dyes as selective fluorescent probes for proteins and mouse embryonic stem cells” (National University of Singapore, priority 2011, dated 2016) are described below.

Each structure is given as a SMILES string.

The nature of the first series: Quantum yield measurements. The conditions noted are these: referred to Rhodamine B in EtOH, excitation 510 nm, emission integrated 540-800 nm. It counts as physicochemical. The protocol:
Quantum yields were calculated by measuring the integrated emission area of the fluorescent spectra, and referring them to the area measured for Rhodamine B in EtOH after excitation at 510 nm (ΦRho-B=0.70). Quantum yields for the BDM products were then calculated using equation below, where F represents the area of fluorescent emission, n is reflective index of the solvent, and Abs is absorbance at excitation wavelength selected for standards and samples. Emission was integrated from 540 nm to 800 nm.
`Cc1cc(/C=C/c2ccc(OCc3ccccc3)c(OCc3ccccc3)c2)n2c1C(CCN)=C1C=CC=[N+]1[B-]2(F)F` [BDM-4]: the “φ (quantum yield)” value stood at 0.42.
On the same count and under the same terms, with `CCOc1ccccc1/C=C/C1=[N+]2C(=C(CCN)c3cccn3[B-]2(F)F)C(C)=C1` [BDM-336] the figure was 0.58; with `Cc1cc(/C=C/c2c3ccccc3cc3ccccc23)n2c1C(CCN)=C1C=CC=[N+]1[B-]2(F)F` [BDM-6], 0.12; with `CC1=CC(/C=C/c2ccc(-c3ccccc3)s2)=[N+]2C1=C(CCN)c1cccn1[B-]2(F)F` [BDM-65], 0.15.
The same measure, in the same setting: with `CCCc1ccc(/C=C/C2=[N+]3C(=C(CCN)c4cccn4[B-]3(F)F)C(C)=C2)cc1` [BDM-77] the figure was 0.54; with `CC1=CC(/C=C/c2ccc(OCCCN(C)C)cc2)=[N+]2C1=C(CCN)c1cccn1[B-]2(F)F` [BDM-163], 0.41.
The same measure, in the same setting: as for `CC1=CC(/C=C/c2ccc(C)s2)=[N+]2C1=C(CCN)c1cccn1[B-]2(F)F` [BDM-236], the figure is 0.22; as for `CC1=CC(/C=C/c2ccccc2I)=[N+]2C1=C(CCN)c1cccn1[B-]2(F)F` [BDM-384], 0.32; as for `Cc1cc(/C=C/c2ccc(C=O)cc2)n2c1C(CCN)=C1C=CC=[N+]1[B-]2(F)F` [BDM-49], 0.24.
As for `CC1=CC(/C=C/c2c(C)cccc2C)=[N+]2C1=C(CCN)c1cccn1[B-]2(F)F` [BDM-243], the “φ (quantum yield)” value is 0.87.
Same read-out and setting: with `CC1=CC(/C=C/c2cc(Br)ccc2O)=[N+]2C1=C(CCN)c1cccn1[B-]2(F)F` [BDM-73] the figure was 0.28.
On to `CCOc1c(/C=C/C2=[N+]3C(=C(CCN)c4cccn4[B-]3(F)F)C(C)=C2)cccc1OC` [BDM-320], for which the “φ (quantum yield)” value came out at 0.21.
On the same count and under the same terms, with `CC1=CC(/C=C/c2ccc(-c3cccc(Cl)c3)o2)=[N+]2C1=C(CCN)c1cccn1[B-]2(F)F` [BDM-284] the figure was 0.03; with `COc1cc(Cl)cc(/C=C/C2=[N+]3C(=C(CCN)c4cccn4[B-]3(F)F)C(C)=C2)c1O` [BDM-275], 0.05.
As to `CC1=CC(/C=C/c2ccc(N(C)CCO)cc2)=[N+]2C1=C(CCN)c1cccn1[B-]2(F)F` [BDM-91], the “φ (quantum yield)” value turned out to be 0.02.
Still for that read-out and setting: as for `COc1ccc(F)c(/C=C/C2=[N+]3C(=C(CCN)c4cccn4[B-]3(F)F)C(C)=C2)c1` [BDM-245], the figure is 0.32; as for `CC1=CC(/C=C/c2ccc(Br)cc2)=[N+]2C1=C(CCN)c1cccn1[B-]2(F)F` [BDM-409], 0.12.
Still for that read-out and setting: with `CCOc1cccc(/C=C/C2=[N+]3C(=C(CCN)c4cccn4[B-]3(F)F)C(C)=C2)c1` [BDM-323] the figure was 0.44; with `CC1=CC(/C=C/c2ccc3c(c2)OC(F)(F)O3)=[N+]2C1=C(CCN)c1cccn1[B-]2(F)F` [BDM-332], 0.61; with `COc1cc(/C=C/C2=[N+]3C(=C(CCN)c4cccn4[B-]3(F)F)C(C)=C2)cc(O)c1OC` [BDM-307], 0.07.
Still for that read-out and setting: with `CC1=CC(/C=C/c2ccc(Oc3ccc(Cl)cc3)cc2)=[N+]2C1=C(CCN)c1cccn1[B-]2(F)F` [BDM-277] the figure was 0.59.
As for `CC1=CC(/C=C/c2ccsc2)=[N+]2C1=C(CCN)c1cccn1[B-]2(F)F` [BDM-369], the “φ (quantum yield)” value was determined as 0.30.
Same read-out and setting: as for `CC1=CC(/C=C/c2ccc(Br)s2)=[N+]2C1=C(CCN)c1cccn1[B-]2(F)F` [BDM-100], the figure is 0.43; as for `COc1ccc(/C=C/C2=[N+]3C(=C(CCN)c4cccn4[B-]3(F)F)C(C)=C2)cc1C` [BDM-335], 0.78.
As for `CC1=CC(/C=C/c2ccc(F)c(Oc3ccccc3)c2)=[N+]2C1=C(CCN)c1cccn1[B-]2(F)F` [BDM-311], the “φ (quantum yield)” value is listed as 0.21.
For the compound `CC1=CC(/C=C/c2ccc(Cl)c(F)c2)=[N+]2C1=C(CCN)c1cccn1[B-]2(F)F` [BDM-437], the “φ (quantum yield)” value amounted to 0.21.
On the same count and under the same terms, with `CCCCCCOc1ccc(/C=C/c2cc(C)c3n2[B-](F)(F)[N+]2=CC=CC2=C3CCN)cc1` [BDM-45] the figure was 0.74; with `CC1=CC(/C=C/c2ccccc2OC(F)(F)F)=[N+]2C1=C(CCN)c1cccn1[B-]2(F)F` [BDM-365], 0.24; with `COc1cc(OC)c(/C=C/C2=[N+]3C(=C(CCN)c4cccn4[B-]3(F)F)C(C)=C2)c(OC)c1` [BDM-82], 0.40.
Same read-out and setting: as for `COc1ccc(/C=C/C2=[N+]3C(=C(CCN)c4cccn4[B-]3(F)F)C(C)=C2)c(OC)c1C` [BDM-347], the figure is 0.57.

A short description of another series: Spectroscopic properties of the BDM library (absorbance and emission maxima). In kind it is physicochemical.
Settings: not given
`Cc1cc(/C=C/c2ccc(OCc3ccccc3)c(OCc3ccccc3)c2)n2c1C(CCN)=C1C=CC=[N+]1[B-]2(F)F` [BDM-4]: the “λmax (ABS)” value came out at 566 nm and the “λmax (EM)” value worked out at 590 nm.
The like results for `CCOc1ccccc1/C=C/C1=[N+]2C(=C(CCN)c3cccn3[B-]2(F)F)C(C)=C1` [BDM-336] were, in that order, 560 nm and 577 nm.
Turning to `Cc1cc(/C=C/c2c3ccccc3cc3ccccc23)n2c1C(CCN)=C1C=CC=[N+]1[B-]2(F)F` [BDM-6], the “λmax (ABS)” value was 536 nm and the “λmax (EM)” value turned out to be 682 nm.
For `CC1=CC(/C=C/c2ccc(-c3ccccc3)s2)=[N+]2C1=C(CCN)c1cccn1[B-]2(F)F` [BDM-65] the same measures were 589 nm and 615 nm.
The like results for `CCCc1ccc(/C=C/C2=[N+]3C(=C(CCN)c4cccn4[B-]3(F)F)C(C)=C2)cc1` [BDM-77] were, in that order, 557 nm and 569 nm.
For `CC1=CC(/C=C/c2ccc(OCCCN(C)C)cc2)=[N+]2C1=C(CCN)c1cccn1[B-]2(F)F` [BDM-163] the same measures were 566 nm and 586 nm.
For `CC1=CC(/C=C/c2ccc(C)s2)=[N+]2C1=C(CCN)c1cccn1[B-]2(F)F` [BDM-236], the “λmax (ABS)” value was determined as 574 nm and the “λmax (EM)” value turned out to be 594 nm.
The like results for `CC1=CC(/C=C/c2ccccc2I)=[N+]2C1=C(CCN)c1cccn1[B-]2(F)F` [BDM-384] were, in that order, 551 nm and 565 nm.
The like results for `Cc1cc(/C=C/c2ccc(C=O)cc2)n2c1C(CCN)=C1C=CC=[N+]1[B-]2(F)F` [BDM-49] were, in that order, 562 nm and 572 nm.
The like results for `CC1=CC(/C=C/c2c(C)cccc2C)=[N+]2C1=C(CCN)c1cccn1[B-]2(F)F` [BDM-243] were, in that order, 543 nm and 565 nm.
As for `CC1=CC(/C=C/c2cc(Br)ccc2O)=[N+]2C1=C(CCN)c1cccn1[B-]2(F)F` [BDM-73], the “λmax (ABS)” value was 561 nm and the “λmax (EM)” value worked out at 575 nm.
The like results for `CCOc1c(/C=C/C2=[N+]3C(=C(CCN)c4cccn4[B-]3(F)F)C(C)=C2)cccc1OC` [BDM-320] were, in that order, 558 nm and 569 nm.
For `CC1=CC(/C=C/c2ccc(-c3cccc(Cl)c3)o2)=[N+]2C1=C(CCN)c1cccn1[B-]2(F)F` [BDM-284] the same measures were 594 nm and 622 nm.
For the compound `COc1cc(Cl)cc(/C=C/C2=[N+]3C(=C(CCN)c4cccn4[B-]3(F)F)C(C)=C2)c1O` [BDM-275], the “λmax (ABS)” value came out at 562 nm.
`CC1=CC(/C=C/c2ccc(N(C)CCO)cc2)=[N+]2C1=C(CCN)c1cccn1[B-]2(F)F` [BDM-91]: the “λmax (ABS)” value came to 614 nm and the “λmax (EM)” value came out at 699 nm.
For `COc1ccc(F)c(/C=C/C2=[N+]3C(=C(CCN)c4cccn4[B-]3(F)F)C(C)=C2)c1` [BDM-245] the same measures were 555 nm and 563 nm.
The like results for `CC1=CC(/C=C/c2ccc(Br)cc2)=[N+]2C1=C(CCN)c1cccn1[B-]2(F)F` [BDM-409] were, in that order, 558 nm and 570 nm.
The like results for `CCOc1cccc(/C=C/C2=[N+]3C(=C(CCN)c4cccn4[B-]3(F)F)C(C)=C2)c1` [BDM-323] were, in that order, 556 nm and 570 nm.
Consider `CC1=CC(/C=C/c2ccc3c(c2)OC(F)(F)O3)=[N+]2C1=C(CCN)c1cccn1[B-]2(F)F` [BDM-332], for which the “λmax (ABS)” value was found to be 552 nm and the “λmax (EM)” value is recorded as 562 nm.
For `COc1cc(/C=C/C2=[N+]3C(=C(CCN)c4cccn4[B-]3(F)F)C(C)=C2)cc(O)c1OC` [BDM-307] the same measures were 564 nm and 580 nm.
For `CC1=CC(/C=C/c2ccc(Oc3ccc(Cl)cc3)cc2)=[N+]2C1=C(CCN)c1cccn1[B-]2(F)F` [BDM-277] the same measures were 559 nm and 574 nm.
For `CC1=CC(/C=C/c2ccsc2)=[N+]2C1=C(CCN)c1cccn1[B-]2(F)F` [BDM-369] the same measures were 554 nm and 570 nm.
As for `CC1=CC(/C=C/c2ccc(Br)s2)=[N+]2C1=C(CCN)c1cccn1[B-]2(F)F` [BDM-100], the “λmax (ABS)” value came to 571 nm and the “λmax (EM)” value is recorded as 582 nm.
The like results for `COc1ccc(/C=C/C2=[N+]3C(=C(CCN)c4cccn4[B-]3(F)F)C(C)=C2)cc1C` [BDM-335] were, in that order, 565 nm and 591 nm.
For `CC1=CC(/C=C/c2ccc(F)c(Oc3ccccc3)c2)=[N+]2C1=C(CCN)c1cccn1[B-]2(F)F` [BDM-311] the same measures were 556 nm and 565 nm.
For `CC1=CC(/C=C/c2ccc(Cl)c(F)c2)=[N+]2C1=C(CCN)c1cccn1[B-]2(F)F` [BDM-437], the “λmax (ABS)” value was determined as 555 nm and the “λmax (EM)” value worked out at 566 nm.
With `CCCCCCOc1ccc(/C=C/c2cc(C)c3n2[B-](F)(F)[N+]2=CC=CC2=C3CCN)cc1` [BDM-45], the “λmax (ABS)” value is listed as 564 nm and the “λmax (EM)” value was determined as 583 nm.
For `CC1=CC(/C=C/c2ccccc2OC(F)(F)F)=[N+]2C1=C(CCN)c1cccn1[B-]2(F)F` [BDM-365] the same measures were 549 nm and 563 nm.
For `COc1cc(OC)c(/C=C/C2=[N+]3C(=C(CCN)c4cccn4[B-]3(F)F)C(C)=C2)c(OC)c1` [BDM-82] the same measures were 579 nm and 621 nm.
Take `COc1ccc(/C=C/C2=[N+]3C(=C(CCN)c4cccn4[B-]3(F)F)C(C)=C2)c(OC)c1C` [BDM-347]: the “λmax (ABS)” value is reported as 566 nm and the “λmax (EM)” value was determined as 591 nm.
